Measurements taken from ChEMBL document CHEMBL5223101, “Evolution of 3-(4-hydroxyphenyl)indoline-2-one as a scaffold for potent and selective anticancer activity” (RSC Med Chem, 2022).
pIC50: −log10 of the molar value.

Experiments:
MCF-10A = assay: Anticancer activity against human MCF-10A cells assessed as cell viability at 1 uM by tryphan blue staining based cell counter analysis relative to control; format: functional; conditions: read-out: Activity
HeLa = assay: Anticancer activity against human HeLa cells assessed as cell viability at 1 uM by tryphan blue staining based cell counter analysis relative to control; format: functional; conditions: read-out: Activity
ES-2 = assay: Anticancer activity against human ES2 assessed as cell viability at 1 uM by tryphan blue staining based cell counter analysis relative to control; format: functional; conditions: read-out: Activity
MDA-MB-231 [1] = assay: Anticancer activity against human MDA-MB-231 cells assessed as cell viability at 1 uM by tryphan blue staining based cell counter analysis relative to control; format: functional; conditions: read-out: Activity
BT-474 = assay: Anticancer activity against human BT-474 cells assessed as cell viability at 1 uM by tryphan blue staining based cell counter analysis relative to control; format: functional; conditions: read-out: Activity
T47D [2] = assay: Anticancer activity against human T47D cells assessed as cell viability at 1 uM by tryphan blue staining based cell counter analysis relative to control; format: functional; conditions: read-out: Activity
MCF7 = assay: Anticancer activity against human MCF7 cells assessed as cell viability at 1 uM by tryphan blue staining based cell counter analysis relative to control; format: functional; conditions: read-out: Activity
HEK-293T = assay: Anticancer activity against human HEK293T cells assessed as cell viability at 1 uM by tryphan blue staining based cell counter analysis relative to control; format: functional; conditions: read-out: Activity
T47D [3] = assay: Anticancer activity against human T47D cells assessed as cell proliferation incubated for 4 days by MTS assay; format: functional, cell-based; conditions: 96 h
T47D [4] = assay: Anticancer activity against human T47D cells assessed as cell growth inhibition incubated for 24 hrs; format: functional, cell-based; conditions: pooled result: one value given for 16 cell lines, strains, targets or settings
MDA-MB-231 [5] = assay: Anticancer activity against human MDA-MB-231 cells assessed as cell growth inhibition incubated for 24 hrs; format: functional, cell-based; conditions: MDA-MB-231, 24 h, pooled result: one value given for 13 cell lines, strains, targets or settings

For `Cc1cccc2c1NC(=O)C2(c1ccc(O)cc1)c1ccc(O)cc1`, the viability at 1 µM (MCF-10A) was under 20%, the viability at 1 µM (HeLa) was under 20% and the viability at 1 µM (ES-2) was under 20%. The viability at 1 µM (MDA-MB-231 [1]) was under 20%, the viability at 1 µM (BT-474) was under 20% and the viability at 1 µM (T47D [2]) was under 20%. It also gave a viability at 1 µM (MCF7) of under 20%, a viability at 1 µM (HEK-293T) of under 20% and a pIC50 (T47D [3]) of 7.82.

For `O=C1Nc2c(C(F)(F)F)cccc2[C@@]1(c1ccc(O)cc1)c1ccc(OC(F)(F)F)cc1`, the pIC50 (T47D [4]) was 7.47 and the pIC50 (MDA-MB-231 [5]) was 4.91.
